From PubChem BioAssay (NCI)
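Results reflect a 48-hour exposure of cells in 96-well plates to compound at five concentrations. TGI: total growth inhibition.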

How the values were obtained:
Assay in all cases: NCI tumour cell line growth inhibition, 48 h
HCT-15 colon = system: HCT-15 colon
SN12C renal = system: SN12C renal
HS 578T breast = system: HS 578T breast
U251 CNS = system: U251 CNS
SF-295 CNS = system: SF-295 CNS
PC-3 prostate = system: PC-3 prostate
LOX IMVI melanoma = system: LOX IMVI melanoma
NCI-H226 lung = system: NCI-H226 lung
SR leukemia = system: SR leukemia
SK-MEL-28 melanoma = system: SK-MEL-28 melanoma
OVCAR-4 ovarian = system: OVCAR-4 ovarian
ACHN renal = system: ACHN renal
MDA-MB-231 breast = system: MDA-MB-231 breast
UO-31 renal = system: UO-31 renal
EKVX NSCLC = system: EKVX NSCLC
HL-60(TB) leukemia = system: HL-60(TB) leukemia
SK-OV-3 ovarian = system: SK-OV-3 ovarian
KM12 colon = system: KM12 colon
CAKI-1 renal = system: CAKI-1 renal
DU-145 prostate = system: DU-145 prostate
UACC-62 melanoma = system: UACC-62 melanoma
MOLT-4 leukemia = system: MOLT-4 leukemia
SNB-75 CNS = system: SNB-75 CNS
MCF7 breast = system: MCF7 breast
HOP-62 NSCLC = system: HOP-62 NSCLC
SW-620 colon = system: SW-620 colon
T-47D breast = system: T-47D breast
CCRF-CEM leukemia = system: CCRF-CEM leukemia
NCI-H23 lung = system: NCI-H23 lung
SNB-19 CNS = system: SNB-19 CNS
K-562 leukemia = system: K-562 leukemia
RXF 393 renal = system: RXF 393 renal
HCT-116 colon = system: HCT-116 colon
TK-10 renal = system: TK-10 renal
NCI-H460 lung = system: NCI-H460 lung
IGROV1 ovarian = system: IGROV1 ovarian
A498 renal = system: A498 renal
MDA-MB-435 = system: MDA-MB-435
M14 melanoma = system: M14 melanoma
SF-268 CNS = system: SF-268 CNS
RPMI-8226 leukemia = system: RPMI-8226 leukemia
NCI/ADR-RES ovarian = system: NCI/ADR-RES ovarian
OVCAR-8 ovarian = system: OVCAR-8 ovarian
A549 NSCLC = system: A549 NSCLC
MALME-3M melanoma = system: MALME-3M melanoma
HT29 colon = system: HT29 colon
HOP-92 NSCLC = system: HOP-92 NSCLC
HCC-2998 colon = system: HCC-2998 colon
OVCAR-3 ovarian = system: OVCAR-3 ovarian
BT-549 breast = system: BT-549 breast
786-0 renal = system: 786-0 renal
SK-MEL-5 melanoma = system: SK-MEL-5 melanoma
COLO 205 colon = system: COLO 205 colon
UACC-257 melanoma = system: UACC-257 melanoma
NCI-H522 lung = system: NCI-H522 lung
OVCAR-5 ovarian = system: OVCAR-5 ovarian

SMILES: N=c1oc2cc(O)ccc2cc1C(=O)Nc1cccc2ccccc12
- TGI (HCT-15 colon): 11.5 µM
- TGI (SN12C renal): 18.9 µM
- TGI (HS 578T breast): > 100 µM
- TGI (U251 CNS): 12.4 µM
- TGI (SF-295 CNS): 23.2 µM
- TGI (PC-3 prostate): 10.2 µM
- TGI (LOX IMVI melanoma): 18.4 µM
- TGI (NCI-H226 lung): 16.6 µM
- TGI (SR leukemia): 7.83 µM
- TGI (SK-MEL-28 melanoma): 34.4 µM
- TGI (OVCAR-4 ovarian): > 51.1 µM
- TGI (ACHN renal): 15.9 µM
- TGI (MDA-MB-231 breast): 10.1 µM
- TGI (UO-31 renal): 19.9 µM
- TGI (EKVX NSCLC): 14.6 µM
- TGI (HL-60(TB) leukemia): 10.7 µM
- TGI (SK-OV-3 ovarian): 27.6 µM
- TGI (KM12 colon): > 36.2 µM
- TGI (CAKI-1 renal): 24.8 µM
- TGI (DU-145 prostate): 20 µM
- TGI (UACC-62 melanoma): 14.3 µM
- TGI (MOLT-4 leukemia): > 35.4 µM
- TGI (SNB-75 CNS): 13.9 µM
- TGI (MCF7 breast): 17.8 µM
- TGI (HOP-62 NSCLC): > 44 µM
- TGI (SW-620 colon): 45.9 µM
- TGI (T-47D breast): 19.6 µM
- TGI (CCRF-CEM leukemia): > 20.4 µM
- TGI (NCI-H23 lung): 12.9 µM
- TGI (SNB-19 CNS): 35.4 µM
- TGI (K-562 leukemia): > 42.7 µM
- TGI (RXF 393 renal): 18.7 µM
- TGI (HCT-116 colon): 14.7 µM
- TGI (TK-10 renal): 7.68 µM
- TGI (NCI-H460 lung): 30.2 µM
- TGI (IGROV1 ovarian): 14.4 µM
- TGI (A498 renal): 18.7 µM
- TGI (MDA-MB-435): 6.54 µM
- TGI (M14 melanoma): 60 µM
- TGI (SF-268 CNS): 57.2 µM
- TGI (RPMI-8226 leukemia): > 100 µM
- TGI (NCI/ADR-RES ovarian): 4.43 µM
- TGI (OVCAR-8 ovarian): 18.3 µM
- TGI (A549 NSCLC): 23.2 µM
- TGI (MALME-3M melanoma): 15.5 µM
- TGI (HT29 colon): 26.9 µM
- TGI (HOP-92 NSCLC): 14.5 µM
- TGI (HCC-2998 colon): 12.9 µM
- TGI (OVCAR-3 ovarian): > 27.9 µM
- TGI (BT-549 breast): 11.5 µM
- TGI (786-0 renal): 17.3 µM
- TGI (SK-MEL-5 melanoma): 15.8 µM
- TGI (COLO 205 colon): 34.6 µM
- TGI (UACC-257 melanoma): 41.2 µM
- TGI (NCI-H522 lung): 7.47 µM
- TGI (OVCAR-5 ovarian): 36.3 µM
